Assay results as given in patent EP4603088A1, “N-PALMITOYLET[…] USE IN COMBINATION WITH MELOXICAM IN THE TREATMENT OF IN[…]” (priority 2024, dated 2025).
“And” between values parts separate entries of the source, which are not always exact repeats. Equal entries are not always repeated.

Tests used:
[1] = tested on: LPS-induced inflammatory pain; experiment: LPS-induced inflammatory pain model, paw pressure test; type: in vivo, Male Sprague-Dawley rats; settings: 60 min after LPS
Procedure: Male Sprague-Dawley rats were housed in groups of four, in 26x41 cm cages, at a temperature of 23±1°C, with a 12-hour circadian cycle, and water/food "ad libitum" (standard diet). LPS (10 µg in 50 µl of 0.9% NaCl, Sigma-Aldrich) was injected into the plantar surface of the hind paw of the rat following isoflurane anesthesia. Control animals were treated with vehicle alone (0.9% NaCl). Ten minutes before the LPS injection, the compounds to be tested or the vehicle alone (1% CMC) were administered orally, according to the following treatment groups (N=8 where not otherwise specified): • CTRL (healthy animals injected with 0.9% NaCl) • VEIC (animals injected with LPS and treated with vehicle, N=9) • MLX30 (animals injected with LPS and treated with meloxicam 30 mg/kg) • MLX3 (animals injected with LPS and treated with meloxicam 3 mg/kg) • PEA10 (animals injected with LPS and treated with PEA 10 mg/kg) • PEA10+MLX3 (animals injected with LPS and treated with PEA 10 mg/kg + meloxicam 3 mg/kg) • PEA5 (animals injected with LPS and treated with PEA 5 mg/kg) • PEA5 + MLX3 (animals injected with LPS and treated with PEA 5 mg/kg + meloxicam 3 mg/kg).
Inflammatory pain induced by LPS injection was measured by paw pressure test. Briefly, before and sixty min after LPS injection, increasing pressure at a constant rate (32 g/s) was applied to the ipsilateral paw of the rat using a non-sharp conical support. […] An analgesimeter (Ugo Basile, Varese) was used for this purpose. The results were expressed in terms of analgesic potency, defined as percentage inhibition (mean ± SEM) of inflammatory pain induced by LPS and calculated according to the formula: 100*(treatm-VEIC)/(CTRL-VEIC).
The results were analyzed via Generalized Linear Model (GLM) followed by post-hoc analysis based on Tukey-Kramer correction for multiple comparisons. […] In order to verify whether the effect of PEA and meloxicam was synergistic, it was analyzed whether the extent of the inhibition of inflammatory pain by LPS was greater for the association of the two substances compared to the substances used individually. […] All analyses were performed using SAS software, version 9.4 (SAS Institute, Cary, NC, USA). P value < 0.05 was considered significant.

[2] = tested on: CFA-induced inflammatory pain; experiment: CFA-induced inflammatory pain model, paw pressure test; type: in vivo, male Sprague-Dawley rats; settings: meloxicam 3 mg/kg and/or micronized PEA 10 mg/kg, single administration per os on day 7 after CFA; T0-T60; p = 0.1405 (meloxicam), p = 0.9588 (PEA), p < 0.0001 (combination)
Text: In the in vivo experimentation, male Sprague-Dawley rats (200-250 g) (Envigo, Varese, Italy) fed "ad libitum" and housed in cages with a controlled sleep/wake cycle were used.
Before the start of the study, the animals were subjected to a 1-week acclimatization period at the Center for Laboratory Animal Sheltering (Ce.S.A.L.) of the University of Florence, following all experimental procedures and protocols compliant with the principles of care and welfare of laboratory animals approved by the Italian Ministry of Health (Italian Legislative Decree 2014/26), European directives (EU Directive 2010/63) and the ARRIVE guidelines. […]
All animals were subjected to the paw pressure test at the level of the ipsilateral paw, performed before (T0) or after 15, 30, 45 and 60 minutes after the single administration of the treatment (T15, T30, T45 and T60, respectively). In particular, the nociceptive threshold was calculated with an analgesiometer (Ugo Basile, Varese, Italy) by applying an increasing pressure at constant speed (32 g/s) by means of a non-pointed conical support on the dorsal surface of the ipsilateral paw with respect to the injection of CFA (or vehicle). […]
The AUC was analyzed by a two-way factor analysis of variance (2x2 ANOVA), after plotting the mean values, according to the procedure shown by Slinker BK. […] The values were expressed as mean ± standard error mean (SEM). […]

[3] = tested on: inflammatory pain induced by Carrageenan; experiment: Carrageenan-induced inflammatory pain model, Von Frey test; type: in vivo, male Sprague-Dawley rats; settings: PEA 3 mg/kg and/or MLX 0.05 mg/kg orally 30 minutes before CAR; 3 and 5 hours after CAR injection; combination p=0.0084 and p=0.0004 vs vehicle
Procedure: All analyses were performed using SAS software, version 9.4 (SAS Institute, Cary, NC, USA). P value < 0.05 was considered significant.

[4] = administered in ultra-micronized form; Nestmann Food Sci Nutr. 2016; cited from earlier work

SMILES	analgesic potency, percentage inhibition of inflammatory pain induced by LPS (media) ([1]; meloxicam 3 mg/kg orally 10 min before LPS, listed as MLX)	analgesic potency, percentage inhibition of inflammatory pain induced by LPS (media) ([1]; meloxicam 30 mg/kg orally 10 min before LPS, listed as MLX)	inflammatory pain tolerance threshold (paw pressure test), effect with respect to CFA [2]	analgesic effect vs vehicle (Von Frey test, paw retraction) [3]	dose up to which free of acute and sub-chronic toxicity [4] [mg/kg daily]	analgesic potency, percentage inhibition of inflammatory pain induced by LPS (media) ([1]; PEA 5 mg/kg orally 10 min before LPS)	analgesic potency, percentage inhibition of inflammatory pain induced by LPS (media) ([1]; PEA 10 mg/kg orally 10 min before LPS)	effect on the LPS-induced drop of the nociceptive threshold vs LPS vehicle ([1]; meloxicam at 3 mg/kg and 30 mg/kg, PEA at 5 mg/kg and 10 mg/kg, alone or associated with low-dose meloxicam, p<0.0001 for all comparisons)
Cc1cnc(NC(=O)C2=C(O)c3ccccc3S(=O)(=O)N2C)s1 [meloxicam]	46,12% and 46,1%	50,49% and 50,5%	no significant effect					
CCCCCCCCCCCCCCCC(=O)NCCO [PEA, N-palmitoylethanolamide]			no significant effect	no analgesic effect significantly different from the vehicle	≥ 1000	26,46% and 26,5%	54,24% and 54,2%	significantly counteracted the pro-algic effect of LPS
